Read-outs that look alike come from different tables or passages of the source.
Legend:
[1] = tested on: RAK3599 strain; test: Investigation with AID and aY-AID culture medium (FIGS. 29 to 39); format: cell-based, Saccharomyces cerevisiae; conditions: for effect on proliferation when added at high concentrations: up to 1% or up to 0.2500%; for preferred concentration / content: AID or aY-AID culture medium
Description: As shown in the following, an investigation was conducted into concentrations of each amino acid and a substitution potential of pantothenic acid for the amino acid in the AID culture medium. A suitable YPD culture medium was used as a control.
Next, the amino acids asparagine, isoleucine, phenylalanine, and valine were each adjusted to a culture medium additive concentration of […], 0.0312%, 0.0625%, 0.1250%, and 0.2500%, and OD600 was measured after 24 hours.
Isoleucine concentration in the aY-AID culture medium was adjusted to 0, 0.01 mg/mL, 0.1 mg/mL, 0.5 mg/mL, and 1 mg/mL, respectively, and proliferation of the RAK3599 strain was investigated.
Phenylalanine concentration in the aY-AID culture medium was adjusted to 0, 0.01, 0.1, 0.5, and 1 mg/mL, respectively, and proliferation of the RAK3599 strain was investigated.
Valine concentration in the aY-AID culture medium was adjusted to 0, 0.01, 0.1, 0.5, and 1 mg/mL, respectively, and proliferation of the RAK3599 strain was investigated.
Serine concentration in the AID culture medium was adjusted to 0, 0.01 mg/mL, 0.1 mg/mL, 0.5 mg/mL, and 1 mg/mL, respectively, and proliferation of the RAK3599 strain was investigated.
Threonine concentration in the AID culture medium was adjusted to 0, 0.01, 0.1, 0.5, and 1 mg/mL, respectively, and proliferation of the RAK3599 strain was investigated.
Asparagine concentration in the AID culture medium was adjusted to 0, 0.01, 0.1, 0.5, and 1 mg/mL, respectively, and proliferation of the RAK3599 strain was investigated.
An investigation was conducted into vitamins contained in the AID culture medium. […]

[2] = tested on: RAK2683 yeast strain; test: Investigation of nitrogen source used singly in MM culture medium instead of ammonium sulfate (Table 4); format: cell-based, Saccharomyces cerevisiae; conditions: Table 4 conditions
[3] = tested on: RAK3599 strain; test: Vitamin and FeCl3 concentration in AKD′ culture medium (FIGS. 22 to 28); format: cell-based, Saccharomyces cerevisiae; conditions: AKD′ culture medium
Description: (§1) In a case where no special provisions are made, a procedure for a cultivation experiment using the culture medium to be investigated for proliferation was such that a yeast undergoing investigation was pre-cultured in a YPD liquid culture medium at 28° C. for 24 hours, after which the yeast was adjusted such that OD600=20. […] In addition, OD600 was measured every 15 minutes by a spectrophotometer (Cell density meter co8000, WPA). Hereafter, data is represented by graphs for a case using the automatic spectrophotometer; however, these graphs are primarily used to compare the slope of logarithmic growth phase proliferation curves for each culture medium, and because OD600 is measured without dilution, values where OD600=3 to 3.5 or more may be incorrect.
Pyridoxine concentration in the AKD′ culture medium was adjusted to 0, 0.004, 0.04, 0.4, 4, and 40 μg/mL, respectively, and proliferation of the RAK3599 strain was investigated.
Pantothenic acid concentration in the AKD′ culture medium was adjusted to 0, 0.004, 0.04, 0.4, 4, and 40 μg/mL, respectively, and proliferation of the RAK3599 strain was investigated.
Thiamine concentration in the AKD′ culture medium was adjusted to 0, 0.004, 0.04, 0.4, 4, and 40 μg/mL, respectively, and proliferation of the RAK3599 strain was investigated.
Nicotinic acid concentration in the AKD′ culture medium was adjusted to 0, 0.004, 0.04, 0.4, 4, and 40 μg/mL, respectively, and proliferation of the RAK3599 strain was investigated.
Myo-inositol concentration in the AKD′ culture medium was adjusted to 0, 0.02 μg/mL, 0.2 μg/mL, 2 μg/mL, 20 μg/mL, and 200 μg/mL, respectively, and proliferation of the RAK 3599 strain was investigated.
FeCl3 concentration in the AKD′ culture medium was adjusted to 0, 0.002, 0.02, 0.2, 2, and 20 μg/mL, respectively, and proliferation of the RAK3599 strain was investigated.

[4] = tested on: Saccharomyces cerevisiae RAK3599 strain; test: SynAA culture medium: elimination of single components and inorganic ion concentration; format: cell-based; conditions: for OD600 for 1/100 solutions after 42 hours: SynAA culture medium
Description: as §1
Culture mediums were prepared in which one component each of the components configuring the inorganic ion mix was eliminated from the SynAA culture medium, and OD600 was measured. […] Thereafter, an investigation specifically of inorganic ion concentration was conducted. […] An investigation was conducted using RAK3599 strain (hereafter, simply referred to as “RAK3599 strain”), which is a strain of Saccharomyces cerevisiae not having a particular nutritional requirement. Where no subsequent special provisions were made, proliferation was investigated by performing roller tube culture for an appropriate amount of time at 28° C. and measuring OD600.
MgSO4 concentration in the SynAA culture mediums was adjusted to 0%, 0.0001%, 0.001%, 0.01%, 0.1%, and 1%, respectively, and proliferation of the RAK3599 strain was investigated. […] Next, MgCl2 concentration in the SynAA culture mediums was adjusted to 0.001%, 0.01%, 0.1%, and 1%, respectively, and proliferation of the RAK3599 strain was investigated.
A culture medium was prepared in which one component each of the components configuring the vitamin mix was eliminated from the SynAA culture medium, with the SynAA culture medium as the control, and proliferation of the RAK3599 strain was investigated.

C[C@H](N)C(=O)O [Alanine, L-Alanine]
effect on proliferation when added at high concentrations ([1]; AID culture medium): a positive influence was imparted to proliferation | content at which the slope of the proliferation curve is greatest ([1]; aY-AID culture medium): around 1 mg/mL | OD600 after 24 hours ([1]; aY-AID culture medium, alanine 0 mg/mL): 17 | OD600 after 24 hours ([1]; aY-AID culture medium, alanine 0.1 mg/mL): 18 | OD600 after 24 hours ([1]; aY-AID culture medium, alanine 1 mg/mL): 18 | OD600 after 24 hours ([1]; aY-AID culture medium, alanine 5 mg/mL): 17 | OD600 after 24 hours ([1]; aY-AID culture medium, alanine 10 mg/mL): 18

CC(=O)O.N [Ammonium acetate]
proliferation when added singly as nitrogen source [2]: did not, as a whole, exhibit favorable proliferation

Cl.N [Ammonium chloride]
proliferation when added singly as nitrogen source [2]: did not, as a whole, exhibit favorable proliferation

NC(=O)C[C@H](N)C(=O)O.O [Asparagine, L-Asparagine monohydrate]
OD600 after 24 hours ([1]; AID culture medium, asparagine 0 mg/mL): 15 | OD600 after 24 hours ([1]; AID culture medium, asparagine 0.01 mg/mL): 16 | OD600 after 24 hours ([1]; AID culture medium, asparagine 0.1 mg/mL): 16 | OD600 after 24 hours ([1]; AID culture medium, asparagine 0.5 mg/mL): 17 | OD600 after 24 hours ([1]; AID culture medium, asparagine 1 mg/mL): 16 | effect on proliferation when added at high concentrations ([1]; AID culture medium): proliferation was confirmed to be inhibited | preferred concentration / content [1]: around 0.5 g/L

[Cl][Fe]([Cl])[Cl] [FeCl3, Anhydrous ferric (III) chloride]
preferred concentration [3]: around 4000 μg/L | OD600 after 24 hours ([3]; FeCl3 0 μg/mL): 10 | OD600 after 24 hours ([3]; FeCl3 0.002 μg/mL): 9 | OD600 after 24 hours ([3]; FeCl3 0.02 μg/mL): 11 | OD600 after 24 hours ([3]; FeCl3 0.2 μg/mL): 10 | OD600 after 24 hours ([3]; FeCl3 2 μg/mL): 13 | OD600 after 24 hours ([3]; FeCl3 20 μg/mL): 14

CC[C@H](C)[C@H](N)C(=O)O [Isoleucine, L-Isoleucine]
effect on proliferation when added at high concentrations ([1]; AID culture medium): a positive influence was imparted to proliferation | preferred concentration / content [1]: around 1 g/L | OD600 after 24 hours ([1]; aY-AID culture medium, concentration of the substance 0): 16 | OD600 after 24 hours ([1]; aY-AID culture medium, concentration of the substance 0.01 mg/mL): 17 | OD600 after 24 hours ([1]; aY-AID culture medium, concentration of the substance 0.1 mg/mL): 16 | OD600 after 24 hours ([1]; aY-AID culture medium, concentration of the substance 0.5 mg/mL): 17 | OD600 after 24 hours ([1]; aY-AID culture medium, concentration of the substance 1 mg/mL): 19

[Cl-].[K+] [KCl, potassium chloride]
proliferation ([4]; 0.1% added after 20 hours to SynAA culture medium with NaH2PO4 instead of KH2PO4): proliferation began

O=P([O-])(O)O.[K+] [KH2PO4, potassium dihydrogen phosphate]
proliferation when the component is not added [4]: extremely low proliferation

O.O.O.O.O.O.O.O=S(=O)([O-])[O-].[Mg+2] [MgSO4, magnesium sulfate-heptahydrate]
OD600 for 1/100 solutions after 42 hours ([4]; concentration of the substance adjusted to 0%): 0.02 | OD600 for 1/100 solutions after 42 hours ([4]; concentration of the substance adjusted to 0.0001%): 0.04 | OD600 for 1/100 solutions after 42 hours ([4]; concentration of the substance adjusted to 0.001%): 0.09 | OD600 for 1/100 solutions after 42 hours ([4]; concentration of the substance adjusted to 0.01%): 0.12 | OD600 for 1/100 solutions after 42 hours ([4]; concentration of the substance adjusted to 0.1%): 0.13 | OD600 for 1/100 solutions after 42 hours ([4]; concentration of the substance adjusted to 1%): 0.13 | proliferation when the component is not added ([4]; one component of the inorganic ion mix eliminated from SynAA culture medium): extremely low proliferation

O=P([O-])(O)O.[Na+] [NaH2PO4]
proliferation ([4]; 0.1% added to SynAA culture medium instead of KH2PO4, after 20 hours): proliferation had not occurred

Source: patent US10023836B2, “Medium for yeasts” (YAMAGUCHI UNIVERSITY, priority 2012, dated 2018)
